Results published in ChEMBL document CHEMBL4422610, “HDAC as onco target: Reviewing the synthetic approaches with SAR study of their inhibitors” (Eur J Med Chem, 2018).

Legend:
Histone deacetylase 1 [1] = target: T1, Histone deacetylase 1 (Homo sapiens, UniProt Q13547); test: Inhibition of HDAC1 (unknown origin) using Ac-peptide as substrate preincubated for 15 mins followed by substrate addition and measured after 60 mins by fluorescence assay
Histone deacetylase 1 [2] = target: T1, Histone deacetylase 1; test: Inhibition of human HDAC1 using fluorogenic HDAC substrate
Histone deacetylase 2 = Histone deacetylase 2 (Homo sapiens, UniProt Q92769); test: Inhibition of human HDAC2 using fluorogenic HDAC substrate
Histone deacetylase 2, sequence (Q92769 whole entry): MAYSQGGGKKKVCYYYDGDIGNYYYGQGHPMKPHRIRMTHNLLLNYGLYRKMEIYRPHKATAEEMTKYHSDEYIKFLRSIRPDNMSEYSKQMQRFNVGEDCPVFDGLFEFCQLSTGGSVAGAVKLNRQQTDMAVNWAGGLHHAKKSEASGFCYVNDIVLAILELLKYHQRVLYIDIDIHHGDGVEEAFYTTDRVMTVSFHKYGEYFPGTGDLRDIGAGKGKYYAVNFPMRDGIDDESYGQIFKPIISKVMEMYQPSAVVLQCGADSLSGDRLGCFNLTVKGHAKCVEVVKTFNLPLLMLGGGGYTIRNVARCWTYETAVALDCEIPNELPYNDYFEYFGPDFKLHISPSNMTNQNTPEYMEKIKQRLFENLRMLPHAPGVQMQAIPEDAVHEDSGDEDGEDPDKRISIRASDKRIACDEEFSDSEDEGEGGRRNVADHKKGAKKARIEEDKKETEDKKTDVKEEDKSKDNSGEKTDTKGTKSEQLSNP

Histone deacetylase 3 = Histone deacetylase 3 (Homo sapiens, UniProt O15379); test: Inhibition of human HDAC3 using fluorogenic HDAC substrate
Histone deacetylase 3, sequence (O15379 whole entry): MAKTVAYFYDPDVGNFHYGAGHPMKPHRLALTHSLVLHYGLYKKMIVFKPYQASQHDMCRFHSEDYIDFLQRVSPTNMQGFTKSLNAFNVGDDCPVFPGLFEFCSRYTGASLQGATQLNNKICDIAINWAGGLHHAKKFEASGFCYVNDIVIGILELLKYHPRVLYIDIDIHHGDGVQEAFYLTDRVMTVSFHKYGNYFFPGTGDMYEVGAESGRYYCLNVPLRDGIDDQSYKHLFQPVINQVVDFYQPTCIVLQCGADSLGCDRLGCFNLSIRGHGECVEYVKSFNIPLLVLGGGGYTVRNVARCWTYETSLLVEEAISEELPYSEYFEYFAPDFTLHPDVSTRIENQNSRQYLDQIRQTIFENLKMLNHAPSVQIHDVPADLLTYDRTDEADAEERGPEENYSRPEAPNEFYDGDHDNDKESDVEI

Histone deacetylase 5 = Histone deacetylase 5 (Homo sapiens, UniProt Q9UQL6); test: Inhibition of human HDAC5 using fluorogenic HDAC substrate
Histone deacetylase 5, sequence (Q9UQL6 whole entry): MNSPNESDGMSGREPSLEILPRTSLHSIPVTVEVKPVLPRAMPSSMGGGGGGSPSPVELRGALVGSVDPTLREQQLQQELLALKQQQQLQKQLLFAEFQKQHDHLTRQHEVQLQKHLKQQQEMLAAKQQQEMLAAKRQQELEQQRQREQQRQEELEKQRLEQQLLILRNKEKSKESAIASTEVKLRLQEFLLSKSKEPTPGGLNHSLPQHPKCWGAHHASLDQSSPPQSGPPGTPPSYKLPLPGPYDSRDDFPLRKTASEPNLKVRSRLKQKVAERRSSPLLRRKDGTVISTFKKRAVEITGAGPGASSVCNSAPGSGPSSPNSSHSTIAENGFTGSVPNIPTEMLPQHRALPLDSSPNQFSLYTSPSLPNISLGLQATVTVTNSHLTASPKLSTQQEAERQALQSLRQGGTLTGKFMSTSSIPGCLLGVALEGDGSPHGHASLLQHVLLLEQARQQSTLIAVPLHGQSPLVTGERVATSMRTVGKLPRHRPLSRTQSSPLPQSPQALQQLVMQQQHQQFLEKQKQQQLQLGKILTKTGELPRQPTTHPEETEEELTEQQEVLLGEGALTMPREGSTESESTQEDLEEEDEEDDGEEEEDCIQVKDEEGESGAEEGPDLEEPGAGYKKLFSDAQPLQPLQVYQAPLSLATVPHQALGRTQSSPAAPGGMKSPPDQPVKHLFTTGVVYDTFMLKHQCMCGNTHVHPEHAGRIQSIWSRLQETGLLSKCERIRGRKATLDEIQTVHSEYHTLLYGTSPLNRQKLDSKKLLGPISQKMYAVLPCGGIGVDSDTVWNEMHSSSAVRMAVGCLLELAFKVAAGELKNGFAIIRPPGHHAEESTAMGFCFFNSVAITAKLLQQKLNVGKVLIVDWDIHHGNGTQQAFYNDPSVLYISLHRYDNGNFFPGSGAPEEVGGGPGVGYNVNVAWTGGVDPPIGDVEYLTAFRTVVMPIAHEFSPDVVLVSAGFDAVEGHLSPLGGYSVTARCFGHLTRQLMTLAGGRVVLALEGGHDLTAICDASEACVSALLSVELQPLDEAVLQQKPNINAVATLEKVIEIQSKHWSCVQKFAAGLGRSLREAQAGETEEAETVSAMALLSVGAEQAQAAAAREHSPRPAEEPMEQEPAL

[3] = target: T2, Protein deacetylase HDAC6 (Homo sapiens, UniProt Q9UBN7); test: Inhibition of human HDAC6 using fluorogenic HDAC substrate
T2 sequence (Q9UBN7 whole entry): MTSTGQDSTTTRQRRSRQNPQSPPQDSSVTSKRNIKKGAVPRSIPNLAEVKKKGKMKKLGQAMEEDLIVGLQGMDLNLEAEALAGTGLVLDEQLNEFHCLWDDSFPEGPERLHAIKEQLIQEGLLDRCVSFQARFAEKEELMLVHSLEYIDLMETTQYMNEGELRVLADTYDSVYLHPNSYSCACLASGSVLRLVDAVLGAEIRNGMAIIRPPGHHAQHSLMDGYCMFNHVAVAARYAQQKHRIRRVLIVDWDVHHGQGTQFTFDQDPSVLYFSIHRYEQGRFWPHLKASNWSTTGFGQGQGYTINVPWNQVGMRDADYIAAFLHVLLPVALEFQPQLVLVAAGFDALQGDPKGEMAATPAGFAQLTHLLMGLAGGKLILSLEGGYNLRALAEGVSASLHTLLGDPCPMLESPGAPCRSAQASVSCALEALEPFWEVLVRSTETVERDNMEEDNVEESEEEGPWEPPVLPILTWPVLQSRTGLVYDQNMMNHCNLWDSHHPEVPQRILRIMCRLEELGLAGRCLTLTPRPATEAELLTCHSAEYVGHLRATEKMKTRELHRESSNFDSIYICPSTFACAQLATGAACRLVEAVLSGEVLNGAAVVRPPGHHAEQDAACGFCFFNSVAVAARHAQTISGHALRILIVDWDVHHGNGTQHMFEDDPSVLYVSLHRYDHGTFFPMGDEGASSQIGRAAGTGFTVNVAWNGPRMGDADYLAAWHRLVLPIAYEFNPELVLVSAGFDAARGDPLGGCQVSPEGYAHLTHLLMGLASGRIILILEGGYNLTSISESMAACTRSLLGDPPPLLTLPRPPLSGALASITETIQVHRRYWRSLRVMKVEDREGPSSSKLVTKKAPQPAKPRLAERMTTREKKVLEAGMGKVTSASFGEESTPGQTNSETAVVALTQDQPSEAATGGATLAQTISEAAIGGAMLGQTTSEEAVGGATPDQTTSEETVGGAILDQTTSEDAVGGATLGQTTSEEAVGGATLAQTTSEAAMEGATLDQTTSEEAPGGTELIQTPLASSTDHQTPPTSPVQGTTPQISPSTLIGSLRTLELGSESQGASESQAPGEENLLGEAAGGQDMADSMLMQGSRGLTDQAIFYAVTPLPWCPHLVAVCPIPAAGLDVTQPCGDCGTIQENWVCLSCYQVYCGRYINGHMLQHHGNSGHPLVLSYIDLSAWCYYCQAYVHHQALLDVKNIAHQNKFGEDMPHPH

Histone deacetylase 8 = target: T3, Histone deacetylase 8 (Homo sapiens, UniProt Q9BY41); test: Inhibition of human HDAC8 using fluorogenic HDAC substrate
T3 sequence (Q9BY41 whole entry): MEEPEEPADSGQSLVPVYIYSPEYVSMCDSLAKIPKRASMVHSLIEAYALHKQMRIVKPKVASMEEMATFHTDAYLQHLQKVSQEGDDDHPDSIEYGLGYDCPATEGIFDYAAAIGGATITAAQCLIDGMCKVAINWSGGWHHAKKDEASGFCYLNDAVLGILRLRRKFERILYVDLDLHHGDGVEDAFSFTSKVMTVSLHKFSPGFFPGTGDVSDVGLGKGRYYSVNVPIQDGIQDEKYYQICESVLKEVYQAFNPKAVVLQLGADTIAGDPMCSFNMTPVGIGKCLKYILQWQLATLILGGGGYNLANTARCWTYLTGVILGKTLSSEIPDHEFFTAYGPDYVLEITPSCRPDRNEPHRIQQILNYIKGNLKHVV

Histone deacetylase 9 = Histone deacetylase 9 (Homo sapiens, UniProt Q9UKV0); test: Inhibition of human HDAC9 using fluorogenic HDAC substrate
Histone deacetylase 9, sequence (Q9UKV0 whole entry): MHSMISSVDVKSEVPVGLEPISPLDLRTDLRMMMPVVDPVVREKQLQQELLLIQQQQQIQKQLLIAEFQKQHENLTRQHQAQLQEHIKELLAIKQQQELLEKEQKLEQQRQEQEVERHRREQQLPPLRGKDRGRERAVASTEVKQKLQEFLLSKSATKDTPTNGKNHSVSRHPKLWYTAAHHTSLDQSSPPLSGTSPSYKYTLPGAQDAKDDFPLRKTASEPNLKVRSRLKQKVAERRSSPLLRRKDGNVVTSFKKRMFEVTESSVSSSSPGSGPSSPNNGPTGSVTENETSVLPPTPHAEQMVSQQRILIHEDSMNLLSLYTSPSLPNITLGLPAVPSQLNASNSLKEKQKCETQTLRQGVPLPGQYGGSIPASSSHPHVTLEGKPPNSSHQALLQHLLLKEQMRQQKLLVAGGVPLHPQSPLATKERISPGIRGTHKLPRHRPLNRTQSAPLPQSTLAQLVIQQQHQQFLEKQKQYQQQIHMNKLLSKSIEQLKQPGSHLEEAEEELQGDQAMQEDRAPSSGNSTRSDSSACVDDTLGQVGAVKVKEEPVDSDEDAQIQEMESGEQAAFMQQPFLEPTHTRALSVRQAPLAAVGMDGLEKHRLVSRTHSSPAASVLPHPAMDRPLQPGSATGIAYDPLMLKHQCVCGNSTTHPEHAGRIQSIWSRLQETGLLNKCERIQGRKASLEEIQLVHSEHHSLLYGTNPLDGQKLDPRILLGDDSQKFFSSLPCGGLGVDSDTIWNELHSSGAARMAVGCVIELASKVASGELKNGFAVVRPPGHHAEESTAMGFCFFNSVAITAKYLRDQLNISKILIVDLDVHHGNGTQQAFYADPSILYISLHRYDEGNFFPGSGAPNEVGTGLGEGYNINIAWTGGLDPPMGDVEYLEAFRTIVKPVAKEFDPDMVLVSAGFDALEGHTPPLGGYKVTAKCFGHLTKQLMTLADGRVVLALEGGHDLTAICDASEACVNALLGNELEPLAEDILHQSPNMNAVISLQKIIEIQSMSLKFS

[4] = target: T4, Polyamine deacetylase HDAC10 (Homo sapiens, UniProt Q969S8); test: Inhibition of human HDAC10 using fluorogenic HDAC substrate
T4 sequence (Q969S8 whole entry): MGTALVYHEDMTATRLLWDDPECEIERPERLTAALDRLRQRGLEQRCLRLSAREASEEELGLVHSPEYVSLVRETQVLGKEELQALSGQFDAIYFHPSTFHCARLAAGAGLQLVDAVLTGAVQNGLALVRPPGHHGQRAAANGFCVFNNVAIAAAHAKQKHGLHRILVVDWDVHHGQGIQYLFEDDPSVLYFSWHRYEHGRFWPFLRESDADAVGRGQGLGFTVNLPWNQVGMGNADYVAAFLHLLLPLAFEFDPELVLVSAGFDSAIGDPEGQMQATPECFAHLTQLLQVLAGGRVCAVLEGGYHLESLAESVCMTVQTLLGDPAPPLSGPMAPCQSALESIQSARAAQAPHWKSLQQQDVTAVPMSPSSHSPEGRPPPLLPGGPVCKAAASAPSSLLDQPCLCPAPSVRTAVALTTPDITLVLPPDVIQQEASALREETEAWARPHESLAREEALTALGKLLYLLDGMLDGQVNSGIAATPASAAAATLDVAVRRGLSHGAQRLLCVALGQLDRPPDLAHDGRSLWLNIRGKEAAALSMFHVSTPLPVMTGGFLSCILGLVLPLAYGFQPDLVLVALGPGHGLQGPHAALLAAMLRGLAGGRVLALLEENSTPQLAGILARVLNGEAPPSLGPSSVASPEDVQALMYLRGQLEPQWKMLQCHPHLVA

Histone deacetylase 11 = target: T5, Histone deacetylase 11 (Homo sapiens, UniProt Q96DB2); test: Inhibition of human HDAC11 using fluorogenic HDAC substrate
T5 sequence (Q96DB2 whole entry): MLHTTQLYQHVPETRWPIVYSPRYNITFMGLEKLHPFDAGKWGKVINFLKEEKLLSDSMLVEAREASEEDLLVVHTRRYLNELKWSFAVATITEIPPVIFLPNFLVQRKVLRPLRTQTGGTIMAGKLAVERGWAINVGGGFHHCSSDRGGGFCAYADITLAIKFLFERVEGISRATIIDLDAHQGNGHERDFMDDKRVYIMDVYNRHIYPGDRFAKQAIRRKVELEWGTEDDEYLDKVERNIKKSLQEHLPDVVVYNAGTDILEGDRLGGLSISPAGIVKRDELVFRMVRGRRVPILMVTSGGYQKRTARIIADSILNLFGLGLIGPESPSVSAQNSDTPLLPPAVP

Histone deacetylase 1 [5] = target: T1, Histone deacetylase 1; test: Inhibition of GST-tagged HDAC1 (unknown origin) expressed in insect cells using poly (Glu, Tyr) 4:1 as substrate measured after 15 mins in presence of [gamma-33P]ATP by Topcount method
Histone deacetylase 4 = Histone deacetylase 4 (Homo sapiens, UniProt P56524); test: Inhibition of human HDAC4 using fluorogenic HDAC substrate
Histone deacetylase 4, sequence (P56524 whole entry): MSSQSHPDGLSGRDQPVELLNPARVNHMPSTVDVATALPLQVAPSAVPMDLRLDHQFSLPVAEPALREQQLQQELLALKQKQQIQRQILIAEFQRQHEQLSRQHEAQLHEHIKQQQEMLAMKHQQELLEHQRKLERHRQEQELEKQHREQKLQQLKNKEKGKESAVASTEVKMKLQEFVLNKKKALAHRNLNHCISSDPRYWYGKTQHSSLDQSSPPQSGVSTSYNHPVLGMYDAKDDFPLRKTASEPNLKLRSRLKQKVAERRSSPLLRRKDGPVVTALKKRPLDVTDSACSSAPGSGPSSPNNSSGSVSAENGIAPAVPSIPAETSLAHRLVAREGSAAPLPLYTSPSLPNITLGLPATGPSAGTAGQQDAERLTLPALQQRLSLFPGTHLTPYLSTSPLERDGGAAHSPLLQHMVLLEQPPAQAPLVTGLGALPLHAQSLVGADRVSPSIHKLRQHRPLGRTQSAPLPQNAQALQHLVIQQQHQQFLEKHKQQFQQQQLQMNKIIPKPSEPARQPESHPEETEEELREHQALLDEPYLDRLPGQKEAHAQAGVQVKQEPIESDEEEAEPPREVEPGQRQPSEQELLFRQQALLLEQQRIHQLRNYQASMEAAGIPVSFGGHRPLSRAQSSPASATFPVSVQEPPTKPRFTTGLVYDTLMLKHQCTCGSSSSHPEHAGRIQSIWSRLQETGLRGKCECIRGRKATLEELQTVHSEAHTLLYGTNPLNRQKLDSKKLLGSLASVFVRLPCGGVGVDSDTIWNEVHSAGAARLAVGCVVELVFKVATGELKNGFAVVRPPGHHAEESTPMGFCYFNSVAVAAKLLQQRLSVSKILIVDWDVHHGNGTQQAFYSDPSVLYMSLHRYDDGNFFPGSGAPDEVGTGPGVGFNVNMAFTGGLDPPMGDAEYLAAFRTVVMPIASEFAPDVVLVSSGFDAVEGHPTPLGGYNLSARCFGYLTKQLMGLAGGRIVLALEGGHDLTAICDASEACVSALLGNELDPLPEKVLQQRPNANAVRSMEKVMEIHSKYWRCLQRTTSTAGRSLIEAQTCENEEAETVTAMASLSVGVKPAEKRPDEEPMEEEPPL

Zea mays = test: Inhibition of maize HD2 at 5 uM using [3H]acetate-labelled histone as substrate by liquid scintillation counting method relative to control
[6] = target: T2, Protein deacetylase HDAC6; test: Inhibition of recombinant full-length human HDAC6 expressed in baculovirus expression system using FAM-RHKK(Ac)-H2 as substrate measured by electrophoretic mobility shift assay

T1 sequence (Q13547 whole entry): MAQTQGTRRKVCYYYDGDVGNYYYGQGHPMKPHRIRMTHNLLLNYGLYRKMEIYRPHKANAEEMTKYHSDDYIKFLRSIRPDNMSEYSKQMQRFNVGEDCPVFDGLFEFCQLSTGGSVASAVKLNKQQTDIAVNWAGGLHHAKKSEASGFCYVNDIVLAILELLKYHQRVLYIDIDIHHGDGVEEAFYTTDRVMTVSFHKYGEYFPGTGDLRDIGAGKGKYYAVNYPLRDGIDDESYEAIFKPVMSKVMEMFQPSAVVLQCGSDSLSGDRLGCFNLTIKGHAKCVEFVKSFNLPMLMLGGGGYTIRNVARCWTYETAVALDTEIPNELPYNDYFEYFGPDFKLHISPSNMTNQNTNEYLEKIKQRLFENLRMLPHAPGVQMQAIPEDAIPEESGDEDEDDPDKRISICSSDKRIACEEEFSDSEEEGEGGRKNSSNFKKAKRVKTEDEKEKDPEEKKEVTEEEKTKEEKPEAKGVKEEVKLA

Compound	IC50 (Histone deacetylase 1 [1])	IC50 (Histone deacetylase 3)	IC50 (Histone deacetylase 5)	IC50 (Histone deacetylase 9)	IC50 [4]	also measured
O=C(CCCCCC(=O)Nc1ccccc1N1C(=O)CSC1c1cccc(Br)c1)NO (stereo not given)	29 nM	–	–	–	–	–
O=C(CCCCCCCOc1ccccc1N1C(=O)CSC1c1cccc(Br)c1)NO (stereo not given)	29 nM	–	–	–	–	–
O=C(NO)c1ccc(CN2c3cc(C(F)(F)F)ccc3CCC[C@@H]3CCCC[C@H]32)cc1	–	18000 nM	22000 nM	> 30000 nM	9400 nM	IC50 (Histone deacetylase 1 [2]): 8800 nM; IC50 (Histone deacetylase 2): 16000 nM; IC50 [3]: 11 nM; IC50 (Histone deacetylase 8): 2000 nM; IC50 (Histone deacetylase 11): 820 nM
O=C(CCCCCOc1ccccc1N1C(=O)CSC1c1cccc(Br)c1)NO (stereo not given)	260 nM	–	–	–	–	–
O=C(/C=C/c1ccc(C2CCCN2CCc2cnn3ccccc23)cc1)NO (stereo not given)	–	–	–	–	–	IC50 (Histone deacetylase 1 [5]): 0.9 nM
O=C(NO)c1ccc(CN2c3ccccc3CCC[C@@H]3CCCC[C@H]32)cc1	–	24000 nM	9100 nM	13000 nM	10000 nM	IC50 (Histone deacetylase 1 [2]): 8100 nM; IC50 (Histone deacetylase 2): 24000 nM; IC50 (Histone deacetylase 4): > 30000 nM; IC50 [3]: 8 nM; IC50 (Histone deacetylase 8): 1100 nM; IC50 (Histone deacetylase 11): 2400 nM
O=C(CCCOc1ccccc1N1C(=O)CSC1c1cccc(Br)c1)NO (stereo not given)	1860 nM	–	–	–	–	–
O=C(NO)c1ccc(Cn2c3c(c4cc(F)ccc42)CSCC3)cc1	–	23000 nM	1800 nM	800 nM	21000 nM	–
Cn1cc(C(=O)c2ccccc2)cc1CCC(=O)NO	–	–	–	–	–	inhibition (Zea mays): 45%
COc1ccc(CN2CCC3(CCc4ccc(C(=O)NO)cc4C3)C2=O)cc1 (stereo not given)	–	–	–	–	–	IC50 [6]: ≤ 100 nM
O=C(NO)c1ccc(Cn2c3c(c4cc(F)ccc42)C[S+]([O-])CC3)cc1 (stereo not given)	–	24000 nM	1300 nM	500 nM	6400 nM	IC50 (Histone deacetylase 1 [2]): 9400 nM; IC50 (Histone deacetylase 2): > 30000 nM; IC50 (Histone deacetylase 4): 1200 nM; IC50 [3]: 9.4 nM; IC50 (Histone deacetylase 8): 2400 nM; IC50 (Histone deacetylase 11): 500 nM
O=C(NO)c1ccc(Cn2c3c(c4ccccc42)CS(=O)(=O)CC3)cc1	–	29000 nM	500 nM	300 nM	7700 nM	IC50 (Histone deacetylase 2): 26000 nM
Cc1[nH]c2ccccc2c1C1CCCN(Cc2ccc(/C=C/C(=O)NO)cc2)C1 (stereo not given)	–	–	–	–	–	IC50 (Histone deacetylase 1 [5]): 6 nM
O=C(CCCCCCOc1ccccc1N1C(=O)CSC1c1cccc(Br)c1)NO (stereo not given)	50 nM	–	–	–	–	–
O=C(CCCOc1ccccc1N1C(=O)CSC1c1ccc(Br)s1)NO (stereo not given)	73 nM	–	–	–	–	–
Cc1ccc(C(=O)c2cc(/C=C/C(=O)NO)n(C)c2)cc1	–	–	–	–	–	inhibition (Zea mays): 86.4%
Cn1cc(C(=O)c2ccc(Cl)cc2)cc1/C=C/C(=O)NO	–	–	–	–	–	inhibition (Zea mays): 87%
Cc1nn2ccccc2c1CCN1CCCC1c1ccc(/C=C/C(=O)NO)cc1 (stereo not given)	–	–	–	–	–	IC50 (Histone deacetylase 1 [5]): 0.6 nM
O=C(NO)c1ccc(CN2c3ccccc3C[C@@H]3CCCCC[C@H]32)cc1	–	> 30000 nM	> 30000 nM	> 30000 nM	> 30000 nM	IC50 (Histone deacetylase 1 [2]): > 30000 nM; IC50 (Histone deacetylase 4): > 30000 nM; IC50 [3]: 33 nM; IC50 (Histone deacetylase 8): 6700 nM; IC50 (Histone deacetylase 11): 1200 nM
